Assay results published in ChEMBL document CHEMBL4145597, “BMS-986163, a Negative Allosteric Modulator of GluN2B with Potential Utility in Major Depressive Disorder” (ACS Med Chem Lett, 2018).
Values after ≈ are worked out from the molar mass of the structure shown. Active and inactive are the calls of the source. The calls are words filed in the database; no cut-off is given here.

Legend:
[1] = tested on: Salmonella typhimurium; assay: Mutagenicity in Salmonella typhimurium by Ames test; assay type: toxicity, organism-based; conditions: salmonella enterica subsp. enterica serovar typhimurium
[2] = Half life in dog liver microsomes; assay type: ADME, Canis lupus familiaris, microsome
[3] = AUClast in Sprague-Dawley rat at 1 mg/kg, iv administered as 5 mins infusion; assay type: ADME, organism-based; set-up: dose 1 mg/kg, route intravenous, time 0 - last; conditions: in vivo
[4] = target: T1, Cytochrome P450 2C8 (Homo sapiens, UniProt P10632); assay: Inhibition of CYP2C8 in human liver microsomes; assay type: ADME
[5] = Clearance in Beagle dog at 1 mg/kg, iv administered as 5 mins infusion; assay type: ADME, organism-based, Canis lupus familiaris; conditions: in vivo
[6] = Plasma concentration in CD-1 mouse at 0.1 to 1 mg/kg, iv; assay type: ADME, organism-based; conditions: in vivo
[7] = Volume of distribution at steady state in Beagle dog at 1 mg/kg, iv administered as 5 mins infusion; assay type: ADME, organism-based, Canis lupus familiaris; conditions: in vivo, read-out: Vdss
[8] = target: T2, Cytochrome P450 2D6 (Homo sapiens, UniProt P10635); assay: Time dependent inhibition of CYP2D6 in human liver microsomes; assay type: ADME
[9] = Half life in rat liver microsomes; assay type: ADME, microsome
[10] = tested on: Rhesus monkey; assay: AUC (0 to 24 hrs) in monkey at 36 mg/kg, iv assessed as BMS-986169 level in plasma; assay type: ADME, organism-based, Macaca mulatta; set-up: dose 36 mg/kg, time < 24 hr, route intravenous; conditions: in vivo
[11] = target: Glutamate receptor ionotropic, NMDA 2B (Homo sapiens, UniProt Q13224); assay: Binding affinity to GluN2B receptor in human cortex
[12] = target: Glutamate receptor ionotropic, NMDA 2B (Homo sapiens, UniProt Q05586+Q13224); assay: Negative allosteric modulation of human GluN2B receptor expressed in Xenopus laevis oocytes assessed as inhibition of glutamate/glycine-induced channel current after 15 to 20 mins by two electrode voltage clamp based electrophysiology assay; assay type: cell-based
[13] = Ratio of drug uptake in CD-1 mouse brain to plasma at 0.1 to 1 mg/kg, iv; assay type: ADME, organism-based; conditions: read-out: BPR
[14] = Fraction unbound in human plasma; assay type: ADME, cell-free
[15] = Prodrug activation in dog assessed as BMS-986169 level in blood at 37 degC; assay type: tissue-based, Canis lupus familiaris
[16] = Half life in CD-1 mouse at 1 mg/kg, iv administered as 5 mins infusion; assay type: ADME, organism-based; conditions: in vivo
[17] = Fraction unbound in dog plasma; assay type: ADME, cell-free, Canis lupus familiaris
[18] = Half life in cynomolgus monkey liver microsomes; assay type: ADME, Macaca fascicularis, microsome
[19] = Fraction unbound in cynomolgus monkey plasma; assay type: ADME, cell-free, Macaca fascicularis
[20] = tested on: Mus musculus; assay: Ex vivo receptor occupancy at GluN2B receptor in CD-1 mouse forebrain membranes assessed as reduction in [3H]Ro 25-6981 receptor labeling at 1 mg/kg, iv incubated for 5 mins by topcount micro scintillation counting method; assay type: functional
[21] = target: T3, Cytochrome P450 3A4 (Homo sapiens, UniProt P08684); assay: Inhibition of CYP3A4 in human liver microsomes using BFC/BZR as substrate; assay type: ADME
[22] = target: T4, Cytochrome P450 2B6 (Homo sapiens, UniProt P20813); assay: Inhibition of CYP2B6 in human liver microsomes; assay type: ADME
[23] = target: Glutamate receptor ionotropic, NMDA 2C (Homo sapiens) (UniProt Q14957); assay: Negative allosteric modulation of human GluN2C receptor expressed in Xenopus laevis oocytes assessed as inhibition of glutamate/glycine-induced channel current at 3 uM after 10 to 15 mins by two electrode voltage clamp based electrophysiology assay; assay type: cell-based
[24] = AUClast in CD-1 mouse at 1 mg/kg, iv administered as 5 mins infusion; assay type: ADME, organism-based; set-up: dose 1 mg/kg, time 0 - last, route intravenous; conditions: in vivo
[25] = target: T3, Cytochrome P450 3A4; assay: Time dependent inhibition of CYP3A4 in human liver microsomes using BFC/BZR as substrate; assay type: ADME
[26] = Aqueous solubility of the compound at pH 7.4; assay type: physicochemical; conditions: aqueous medium
[27] = target: T5, Cytochrome P450 2C9 (Homo sapiens, UniProt P11712); assay: Time dependent inhibition of CYP2C9 in human liver microsomes; assay type: ADME
[28] = tested on: Mus musculus; assay: Ex vivo receptor occupancy at GluN2B receptor in CD-1 mouse forebrain membranes assessed as reduction in [3H]Ro 25-6981 receptor labeling at 3 mg/kg, iv incubated for 5 mins by topcount micro scintillation counting method; assay type: functional
[29] = AUClast in cynomolgus monkey at 1 mg/kg, iv administered as 5 mins infusion; assay type: ADME, organism-based, Macaca fascicularis; set-up: dose 1 mg/kg, route intravenous, time 0 - last; conditions: in vivo
[30] = target: Glutamate receptor ionotropic, NMDA 2D (Homo sapiens) (UniProt O15399); assay: Negative allosteric modulation of human GluN2D receptor expressed in Xenopus laevis oocytes assessed as inhibition of glutamate/glycine-induced channel current at 3 uM after 10 to 15 mins by two electrode voltage clamp based electrophysiology assay; assay type: cell-based
[31] = Clearance in CD-1 mouse at 1 mg/kg, iv administered as 5 mins infusion; assay type: ADME, organism-based; conditions: in vivo
[32] = target: T1, Cytochrome P450 2C8; assay: Time dependent inhibition of CYP2C8 in human liver microsomes; assay type: ADME
[33] = target: T6, Cytochrome P450 1A2 (Homo sapiens, UniProt P05177); assay: Inhibition of CYP1A2 in human liver microsomes; assay type: ADME
[34] = target: Adrenergic receptor alpha-1 (Homo sapiens) (UniProt P35348+P25100+P35368); assay: Inhibition of human adrenergic alpha 1 receptor; assay type: protein assay
[35] = Volume of distribution at steady state in cynomolgus monkey at 1 mg/kg, iv administered as 5 mins infusion; assay type: ADME, organism-based, Macaca fascicularis; conditions: in vivo, read-out: Vdss
[36] = Half life in human liver microsomes; assay type: ADME, microsome
[37] = Octanol/water buffer partition co-efficient, log D of the compound at pH 7.4 by shake-flask method; assay type: physicochemical
[38] = target: T7, Cytochrome P450 2C19 (Homo sapiens, UniProt P33261); assay: Time dependent inhibition of CYP2C19 in human liver microsomes; assay type: ADME
[39] = target: T5, Cytochrome P450 2C9; assay: Inhibition of CYP2C9 in human liver microsomes; assay type: ADME
[40] = Oral bioavailability in rat at 5 mg/kg; assay type: ADME, organism-based; conditions: in vivo
[41] = Volume of distribution at steady state in CD-1 mouse at 1 mg/kg, iv administered as 5 mins infusion; assay type: ADME, organism-based; conditions: in vivo, read-out: Vdss
[42] = target: T7, Cytochrome P450 2C19; assay: Inhibition of CYP2C19 in human liver microsomes; assay type: ADME
[43] = target: T6, Cytochrome P450 1A2; assay: Time dependent inhibition of CYP1A2 in human liver microsomes; assay type: ADME
[44] = Half life in Beagle dog at 1 mg/kg, iv administered as 5 mins infusion; assay type: ADME, organism-based, Canis lupus familiaris; conditions: in vivo
[45] = Dissociation constant, pKa of the compound by spectrophotometric method; assay type: physicochemical
[46] = target: T2, Cytochrome P450 2D6; assay: Inhibition of CYP2D6 in human liver microsomes; assay type: ADME
[47] = Prodrug activation in monkey assessed as BMS-986169 level in blood at 37 degC; assay type: tissue-based, Macaca mulatta; conditions: rhesus monkey
[48] = Fraction unbound in rat plasma; assay type: ADME, cell-free
[49] = target: Glutamate receptor ionotropic, NMDA 2A (Homo sapiens) (UniProt Q12879); assay: Negative allosteric modulation of human GluN2A receptor expressed in Xenopus laevis oocytes assessed as inhibition of glutamate/glycine-induced channel current at 3 uM after 10 to 15 mins by two electrode voltage clamp based electrophysiology assay; assay type: cell-based
[50] = Half life in mouse liver microsomes; assay type: ADME, microsome
[51] = Volume of distribution at steady state in Sprague-Dawley rat at 1 mg/kg, iv administered as 5 mins infusion; assay type: ADME, organism-based; conditions: in vivo, read-out: Vdss
[52] = Clearance in Sprague-Dawley rat at 1 mg/kg, iv administered as 5 mins infusion; assay type: ADME, organism-based; conditions: in vivo
[53] = Binding affinity to GluN2B receptor in cynomolgus monkey cortex; set-up: species or system Macaca fascicularis
[54] = Clearance in cynomolgus monkey at 1 mg/kg, iv administered as 5 mins infusion; assay type: ADME, organism-based, Macaca fascicularis; conditions: in vivo
[55] = target: T4, Cytochrome P450 2B6; assay: Time dependent inhibition of CYP2B6 in human liver microsomes; assay type: ADME
[56] = tested on: Cavia porcellus; assay: Cardiotoxicity in guinea pig assessed as increase in QTcB at 2 to 10 mg/kg, iv; assay type: toxicity, organism-based; conditions: in vivo
[57] = Fraction unbound in mouse plasma; assay type: ADME, cell-free
[58] = Half life in cynomolgus monkey at 1 mg/kg, iv administered as 5 mins infusion; assay type: ADME, organism-based, Macaca fascicularis; conditions: in vivo
[59] = Prodrug activation in human assessed as BMS-986169 level in blood at 37 degC; assay type: tissue-based
[60] = Prodrug activation in cynomolgus monkey assessed as BMS-986169 level in plasma at 1.2 mg/kg, iv measured 10 mins post dose; assay type: organism-based, Macaca fascicularis; conditions: in vivo
[61] = Prodrug activation in rat assessed as BMS-986169 level in blood at 37 degC; assay type: tissue-based
[62] = Half life in Sprague-Dawley rat at 1 mg/kg, iv administered as 5 mins infusion; assay type: ADME, organism-based; conditions: in vivo
[63] = AUClast in Beagle dog at 1 mg/kg, iv administered as 5 mins infusion; assay type: ADME, organism-based, Canis lupus familiaris; set-up: dose 1 mg/kg, time 0 - last, route intravenous; conditions: in vivo
[64] = Unbound plasma concentration in guinea pig at 2 to 10 mg/kg, iv; assay type: ADME, organism-based, Cavia porcellus; conditions: in vivo

T6 sequence (P05177 whole entry): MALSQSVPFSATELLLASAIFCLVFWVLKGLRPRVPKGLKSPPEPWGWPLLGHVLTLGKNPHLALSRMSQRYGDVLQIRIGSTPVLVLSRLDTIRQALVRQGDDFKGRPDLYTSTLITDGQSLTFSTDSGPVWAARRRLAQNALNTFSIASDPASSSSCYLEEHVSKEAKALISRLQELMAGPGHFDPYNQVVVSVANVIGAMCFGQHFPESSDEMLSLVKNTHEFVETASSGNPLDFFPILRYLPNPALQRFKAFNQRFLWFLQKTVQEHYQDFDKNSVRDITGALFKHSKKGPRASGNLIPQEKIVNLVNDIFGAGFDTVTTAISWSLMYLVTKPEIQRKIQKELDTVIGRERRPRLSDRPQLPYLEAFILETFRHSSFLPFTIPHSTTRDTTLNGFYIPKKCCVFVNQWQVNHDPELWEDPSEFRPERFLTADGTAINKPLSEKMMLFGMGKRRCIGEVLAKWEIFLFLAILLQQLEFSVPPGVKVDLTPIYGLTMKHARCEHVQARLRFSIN
T7 sequence (P33261 whole entry): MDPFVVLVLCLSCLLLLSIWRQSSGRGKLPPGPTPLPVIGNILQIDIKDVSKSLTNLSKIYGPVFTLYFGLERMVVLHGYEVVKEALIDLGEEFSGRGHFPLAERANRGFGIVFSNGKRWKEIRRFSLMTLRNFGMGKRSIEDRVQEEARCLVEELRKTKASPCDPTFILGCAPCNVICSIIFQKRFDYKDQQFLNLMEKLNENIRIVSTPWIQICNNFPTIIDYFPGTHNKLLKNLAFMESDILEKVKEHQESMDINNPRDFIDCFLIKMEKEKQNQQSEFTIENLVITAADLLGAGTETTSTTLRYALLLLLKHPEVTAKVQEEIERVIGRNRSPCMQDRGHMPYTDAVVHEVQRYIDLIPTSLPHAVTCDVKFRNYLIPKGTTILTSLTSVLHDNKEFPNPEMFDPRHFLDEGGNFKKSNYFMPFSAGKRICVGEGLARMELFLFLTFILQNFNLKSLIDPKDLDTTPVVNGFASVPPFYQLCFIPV
T3 sequence (P08684 whole entry): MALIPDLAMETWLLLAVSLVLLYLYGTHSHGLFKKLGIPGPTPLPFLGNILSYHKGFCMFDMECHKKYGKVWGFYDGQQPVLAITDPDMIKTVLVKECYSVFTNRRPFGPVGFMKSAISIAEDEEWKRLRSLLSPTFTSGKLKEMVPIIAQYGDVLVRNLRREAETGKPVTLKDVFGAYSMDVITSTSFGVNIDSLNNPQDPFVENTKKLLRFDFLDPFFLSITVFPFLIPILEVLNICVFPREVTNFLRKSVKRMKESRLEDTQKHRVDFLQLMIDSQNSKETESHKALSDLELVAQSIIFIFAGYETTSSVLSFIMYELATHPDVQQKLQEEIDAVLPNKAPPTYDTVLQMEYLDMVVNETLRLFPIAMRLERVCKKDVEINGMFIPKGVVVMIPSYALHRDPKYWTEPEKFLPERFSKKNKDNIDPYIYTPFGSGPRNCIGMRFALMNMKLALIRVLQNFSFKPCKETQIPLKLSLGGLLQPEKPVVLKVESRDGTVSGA
T4 sequence (P20813 whole entry): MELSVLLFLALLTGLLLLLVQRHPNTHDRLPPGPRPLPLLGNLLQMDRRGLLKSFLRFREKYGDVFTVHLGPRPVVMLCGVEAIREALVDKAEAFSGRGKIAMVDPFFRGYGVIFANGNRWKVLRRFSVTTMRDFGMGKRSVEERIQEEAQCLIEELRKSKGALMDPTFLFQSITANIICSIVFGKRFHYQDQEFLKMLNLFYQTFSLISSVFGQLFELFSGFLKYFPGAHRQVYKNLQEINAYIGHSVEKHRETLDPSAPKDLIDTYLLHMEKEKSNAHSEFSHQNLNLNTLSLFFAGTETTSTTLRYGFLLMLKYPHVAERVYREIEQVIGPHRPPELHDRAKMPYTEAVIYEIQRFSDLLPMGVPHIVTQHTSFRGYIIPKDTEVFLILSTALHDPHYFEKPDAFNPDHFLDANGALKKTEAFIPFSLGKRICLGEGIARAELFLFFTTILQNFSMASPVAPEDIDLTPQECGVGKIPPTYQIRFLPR
T2 sequence (P10635 whole entry): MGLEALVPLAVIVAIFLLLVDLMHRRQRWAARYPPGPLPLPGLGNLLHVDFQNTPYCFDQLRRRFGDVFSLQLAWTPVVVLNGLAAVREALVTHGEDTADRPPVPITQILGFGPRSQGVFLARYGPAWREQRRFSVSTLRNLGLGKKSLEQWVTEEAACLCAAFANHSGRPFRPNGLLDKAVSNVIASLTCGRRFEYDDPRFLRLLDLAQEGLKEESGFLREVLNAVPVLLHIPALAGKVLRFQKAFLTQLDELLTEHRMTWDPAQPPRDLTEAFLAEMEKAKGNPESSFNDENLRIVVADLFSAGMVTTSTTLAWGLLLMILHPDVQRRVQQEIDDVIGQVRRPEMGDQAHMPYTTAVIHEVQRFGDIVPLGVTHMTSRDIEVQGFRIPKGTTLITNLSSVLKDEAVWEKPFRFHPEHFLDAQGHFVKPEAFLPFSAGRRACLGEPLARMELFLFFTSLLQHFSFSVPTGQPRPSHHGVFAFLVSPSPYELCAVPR
T5 sequence (P11712 whole entry): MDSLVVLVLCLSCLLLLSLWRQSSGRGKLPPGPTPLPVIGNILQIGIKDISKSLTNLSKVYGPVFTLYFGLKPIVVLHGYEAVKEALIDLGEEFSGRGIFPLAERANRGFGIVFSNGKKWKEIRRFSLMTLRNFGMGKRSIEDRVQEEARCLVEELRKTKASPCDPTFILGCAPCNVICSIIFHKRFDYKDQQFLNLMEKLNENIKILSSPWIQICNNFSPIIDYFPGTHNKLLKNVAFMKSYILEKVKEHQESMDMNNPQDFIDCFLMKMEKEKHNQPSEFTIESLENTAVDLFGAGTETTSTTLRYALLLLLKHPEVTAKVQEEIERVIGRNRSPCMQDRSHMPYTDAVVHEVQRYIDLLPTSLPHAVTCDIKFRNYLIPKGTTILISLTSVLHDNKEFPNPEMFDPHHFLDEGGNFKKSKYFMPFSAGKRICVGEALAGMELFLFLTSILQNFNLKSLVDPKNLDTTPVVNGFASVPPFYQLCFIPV
T1 sequence (P10632 whole entry, the tested form may be a part): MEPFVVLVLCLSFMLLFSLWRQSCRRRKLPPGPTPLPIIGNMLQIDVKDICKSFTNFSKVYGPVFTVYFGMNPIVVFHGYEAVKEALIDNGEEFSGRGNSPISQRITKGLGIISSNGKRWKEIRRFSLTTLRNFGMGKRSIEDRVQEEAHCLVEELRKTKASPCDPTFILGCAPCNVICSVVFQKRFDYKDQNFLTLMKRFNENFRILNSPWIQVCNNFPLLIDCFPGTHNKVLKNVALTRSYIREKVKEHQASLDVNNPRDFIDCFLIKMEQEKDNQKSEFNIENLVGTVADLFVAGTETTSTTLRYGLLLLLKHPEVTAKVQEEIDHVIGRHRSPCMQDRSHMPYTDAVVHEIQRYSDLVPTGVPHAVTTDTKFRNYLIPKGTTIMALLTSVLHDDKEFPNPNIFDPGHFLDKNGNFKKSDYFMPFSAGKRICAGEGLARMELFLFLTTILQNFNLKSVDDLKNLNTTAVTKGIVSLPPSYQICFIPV
Sequence of Glutamate receptor ionotropic, NMDA 2C (Homo sapiens) (Q14957 whole entry, the tested form may be a part): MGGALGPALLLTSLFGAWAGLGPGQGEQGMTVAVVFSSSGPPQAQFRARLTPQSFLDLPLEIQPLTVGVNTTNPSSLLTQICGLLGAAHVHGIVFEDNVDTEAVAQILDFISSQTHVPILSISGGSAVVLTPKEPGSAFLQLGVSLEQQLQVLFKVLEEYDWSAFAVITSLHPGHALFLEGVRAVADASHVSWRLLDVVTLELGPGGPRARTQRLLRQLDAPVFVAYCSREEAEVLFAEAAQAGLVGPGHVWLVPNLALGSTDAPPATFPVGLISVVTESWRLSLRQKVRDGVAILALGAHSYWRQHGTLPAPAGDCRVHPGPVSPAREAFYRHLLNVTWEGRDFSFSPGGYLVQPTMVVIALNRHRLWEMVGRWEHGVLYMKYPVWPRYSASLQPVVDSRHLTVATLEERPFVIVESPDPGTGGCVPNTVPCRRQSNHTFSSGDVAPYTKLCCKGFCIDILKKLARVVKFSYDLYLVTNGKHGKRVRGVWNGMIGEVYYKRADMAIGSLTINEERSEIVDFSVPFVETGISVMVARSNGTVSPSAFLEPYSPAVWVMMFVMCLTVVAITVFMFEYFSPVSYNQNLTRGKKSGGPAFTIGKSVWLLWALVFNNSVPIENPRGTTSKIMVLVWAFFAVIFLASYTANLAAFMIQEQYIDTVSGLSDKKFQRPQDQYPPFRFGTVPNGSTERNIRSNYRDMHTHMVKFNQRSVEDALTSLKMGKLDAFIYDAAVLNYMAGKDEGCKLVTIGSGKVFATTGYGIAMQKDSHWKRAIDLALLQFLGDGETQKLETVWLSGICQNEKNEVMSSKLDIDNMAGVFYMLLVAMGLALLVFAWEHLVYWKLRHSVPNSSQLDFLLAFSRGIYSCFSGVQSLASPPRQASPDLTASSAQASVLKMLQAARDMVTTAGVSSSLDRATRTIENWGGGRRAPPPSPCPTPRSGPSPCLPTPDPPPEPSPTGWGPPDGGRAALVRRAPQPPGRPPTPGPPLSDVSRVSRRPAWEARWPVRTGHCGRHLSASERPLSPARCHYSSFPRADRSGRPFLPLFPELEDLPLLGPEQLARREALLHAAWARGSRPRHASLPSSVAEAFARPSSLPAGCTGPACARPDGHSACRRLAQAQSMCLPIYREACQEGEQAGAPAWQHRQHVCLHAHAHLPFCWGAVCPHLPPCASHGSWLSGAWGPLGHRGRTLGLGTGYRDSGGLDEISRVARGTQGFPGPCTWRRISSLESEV

Cc1ccc(CN2CC[C@@H](N3CC[C@@H](c4ccc(O)cc4)[C@H](F)C3)C2=O)cc1
Activity [1]: Non-Toxic
half-life [2]: 6 min
AUC(0-t) at 5 min [3]: 1.3 µM·h
IC50 [4]: > 18 µM
clearance [5]: 17 mL/min/kg
concentration [6]: 270 to 1100 nM
Vd [7]: 2.1 L/kg
TDI [8]: Not Active
half-life [9]: 2.7 min
AUC [10]: 88 µM·h
Ki [11]: 0.0063 µM
IC50 [12]: 0.024 µM
Kp [13]: 2.8
fraction unbound [14]: 0.06
Drug metabolism [15]: Metabolite_Detected
half-life [16]: 216 min
fraction unbound [17]: 0.07
half-life [18]: 12 min
fraction unbound [19]: 0.11
Occ [20]: 73%
IC50 [21]: > 18 µM
IC50 [22]: > 18 µM
inhibition [23]: 8.6%
AUC(0-t) at 5 min [24]: 0.53 µM·h
TDI [25]: Not Active
solubility [26]: 2 µg/mL (≈ 5.23 µM)
TDI [27]: Not Active
Occ [28]: 95%
AUC(0-t) at 5 min [29]: 2.7 µM·h
inhibition [30]: 7%
clearance [31]: 75 mL/min/kg
TDI [32]: Not Active
IC50 [33]: > 18 µM
inhibition [34]: inactive
Vd [35]: 1.7 L/kg
half-life [36]: 25 min
logD [37]: 2.9
TDI [38]: Not Active
IC50 [39]: > 18 µM
bioavailability [40]: 2.5%
Vd [41]: 8.2 L/kg
IC50 [42]: > 18 µM
TDI [43]: Not Active
half-life [44]: 126 min
pKa [45]: 4.4
IC50 [46]: > 18 µM
Drug metabolism [47]: Metabolite_Detected
fraction unbound [48]: 0.09
inhibition [49]: -2.4%
half-life [50]: 3.5 min
Vd [51]: 2.3 L/kg
clearance [52]: 54 mL/min/kg
Ki [53]: 0.0042 µM
clearance [54]: 15 mL/min/kg
TDI [55]: Not Active
Activity [56]: Non-Toxic
fraction unbound [57]: 0.12
half-life [58]: 90 min
Drug metabolism [59]: Metabolite_Detected
Drug metabolism [60]: Metabolite_Detected
Drug metabolism [61]: Metabolite_Detected
half-life [62]: 54 min
AUC(0-t) at 5 min [63]: 2.5 µM·h
Cp(f) [64]: <= 19 uM
